Data from patent publication US20220389061A1, “IMMUNOMODULATORS” (priority 2019, published 2022).
Like-named read-outs stand apart in the source and are kept apart here. Starred links: 1 amine or outer side, 2 acyl side, 3 side chain; linkers in the order of their positions; H or OH if unused. Positions of bridges follow the written chain, without caps; N, C: chain ends. Non-standard residues stand in square brackets, D forms with d. Residues, ends and D or L forms follow the SMILES beside them. Groups on a side chain read outwards from the residue. *: point of attachment. Trp(1-CH2COOH) = N[C@@H](Cc1cn(CC(=O)O)c2ccccc12)C(=O)O; X73 = FC(F)(F)c1cc(NC(=S)*)cc(C(F)(F)F)c1; X63 = COc1cc([N+](=O)[O-])ccc1NC(=S)*; Hyp = O=C(O)[C@@H]1C[C@@H](O)CN1; X80 = S=C(Nc1ccc(-n2cccn2)cc1)*; X60 = Cc1cc2cc(NC(=S)*)ccc2o1; NMeNle = CCCC[C@H](NC)C(=O)O; X2 = c1ccc(-c2ccccc2N*)cc1; NMeA = CN[C@@H](C)C(=O)O; Dab = NCC[C@H](N)C(=O)O; Dap = NC[C@H](N)C(=O)O; X37 = Fc1cc(F)cc(N*)c1; X15 = Cc1ccc(Cl)cc1N*; CO = O=C([*:1])[*:2]

Target: T1, PD-1/PD-L1 (Homo sapiens, UniProt Q9NZQ7)
T1 construct: TVMV protease site linker (C); made in house; host or cells: HEK293T cells
Experiment: PD-1/PD-L1 Homogenous Time-Resolved Fluorescence (HTRF) binding assay
Outline: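 HTRF read-out using europium cryptate anti-Ig (1 nM) and APC anti-His (20 nM) on extracellular-domain fusion proteins in dPBS/0.1% BSA/0.05% Tween-20. Inhibitor first incubated 15 min with 10 nM PD-L1-His, followed by 20 nM PD-1-Ig for another 15 min.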

[1] = PD-L1-His 10 nM pre-incubated with inhibitor, PD-1-Ig 20 nM, read-out: HTRF IC50

T1 sequence (Q9NZQ7 18-239): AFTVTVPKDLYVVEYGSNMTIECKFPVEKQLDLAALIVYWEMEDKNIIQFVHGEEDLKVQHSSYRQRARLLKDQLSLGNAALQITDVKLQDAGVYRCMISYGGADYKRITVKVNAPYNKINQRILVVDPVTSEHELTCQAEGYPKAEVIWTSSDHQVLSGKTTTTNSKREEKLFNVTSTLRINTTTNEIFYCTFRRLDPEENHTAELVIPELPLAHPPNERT

Row | SMILES | IC50 [1] | other results
1 | CCCC[C@H]1C(=O)N(C)[C@@H](CCCC)C(=O)N[C@@H](CC(C)C)C(=O)N[C@H](C(=O)NCC(N)=O)CSCC(=O)N[C@@H](Cc2ccc(O)cc2)C(=O)N(C)[C@@H](C)C(=O)N[C@@H](CC(N)=O)C(=O)N2CCC[C@H]2C(=O)N[C@@H](CN)C(=O)N[C@@H](CC(C)C)C(=O)N2C[C@H](O)C[C@H]2C(=O)N[C@@H](Cc2c[nH]c3ccccc23)C(=O)N[C@@H](CCNC(=O)Nc2cc(F)cc(F)c2)C(=O)N[C@@H](Cc2cn(CC(=O)O)c3ccccc23)C(=O)N1C [Example 1101] ({CH2CO}-Y[NMeA]NP[Dap]L[Hyp]W[Dab]([CO-X37])[Trp(1-CH2COOH)][NMeNle][NMeNle]LCG-NH2; thioether N-14) | 8.6 nM | 
2 | CCCC[C@H]1C(=O)N(C)[C@@H](CCCC)C(=O)N[C@@H](CC(C)C)C(=O)N[C@H](C(=O)NCC(N)=O)CSCC(=O)N[C@@H](Cc2ccc(O)cc2)C(=O)N(C)[C@@H](C)C(=O)N[C@@H](CC(N)=O)C(=O)N2CCC[C@H]2C(=O)N[C@@H](CNC(=O)Nc2cc(Cl)ccc2C)C(=O)N[C@@H](CC(C)C)C(=O)N2C[C@H](O)C[C@H]2C(=O)N[C@@H](Cc2c[nH]c3ccccc23)C(=O)N[C@@H](CCNC(=O)Nc2cc(Cl)ccc2C)C(=O)N[C@@H](Cc2cn(CC(=O)O)c3ccccc23)C(=O)N1C [Example 1118] ({CH2CO}-Y[NMeA]NP[Dap]([CO-X15])L[Hyp]W[Dab]([CO-X15])[Trp(1-CH2COOH)][NMeNle][NMeNle]LCG-NH2; thioether N-14) | 4.3 nM | 
3 | CCCC[C@H]1C(=O)N(C)[C@@H](CCCC)C(=O)N[C@@H](CC(C)C)C(=O)N[C@H](C(=O)NCC(N)=O)CSCC(=O)N[C@@H](Cc2ccc(O)cc2)C(=O)N(C)[C@@H](C)C(=O)N[C@@H](CC(N)=O)C(=O)N2CCC[C@H]2C(=O)N[C@@H](CNC(=S)Nc2ccc([N+](=O)[O-])cc2OC)C(=O)N[C@@H](CC(C)C)C(=O)N2C[C@H](O)C[C@H]2C(=O)N[C@@H](Cc2c[nH]c3ccccc23)C(=O)N[C@@H](CCNC(=S)Nc2ccc([N+](=O)[O-])cc2OC)C(=O)N[C@@H](Cc2cn(CC(=O)O)c3ccccc23)C(=O)N1C [Example 1104] ({CH2CO}-Y[NMeA]NP[Dap](X63)L[Hyp]W[Dab](X63)[Trp(1-CH2COOH)][NMeNle][NMeNle]LCG-NH2; thioether N-14) |  | IC50: 12 nM
4 | CCCC[C@H]1C(=O)N(C)[C@@H](CCCC)C(=O)N[C@@H](CC(C)C)C(=O)N[C@H](C(=O)NCC(N)=O)CSCC(=O)N[C@@H](Cc2ccc(O)cc2)C(=O)N(C)[C@@H](C)C(=O)N[C@@H](CC(N)=O)C(=O)N2CCC[C@H]2C(=O)N[C@@H](CNC(=S)Nc2ccc(-n3cccn3)cc2)C(=O)N[C@@H](CC(C)C)C(=O)N2C[C@H](O)C[C@H]2C(=O)N[C@@H](Cc2c[nH]c3ccccc23)C(=O)N[C@@H](CCN)C(=O)N[C@@H](Cc2cn(CC(=O)O)c3ccccc23)C(=O)N1C [Example 1060] ({CH2CO}-Y[NMeA]NP[Dap](X80)L[Hyp]W[Dab][Trp(1-CH2COOH)][NMeNle][NMeNle]LCG-NH2; thioether N-14) | 1.1 nM | 
5 | CCCC[C@H]1C(=O)N(C)[C@@H](CCCC)C(=O)N[C@@H](CC(C)C)C(=O)N[C@H](C(=O)NCC(N)=O)CSCC(=O)N[C@@H](Cc2ccc(O)cc2)C(=O)N(C)[C@@H](C)C(=O)N[C@@H](CC(N)=O)C(=O)N2CCC[C@H]2C(=O)N[C@@H](CNC(=S)Nc2ccc3oc(C)cc3c2)C(=O)N[C@@H](CC(C)C)C(=O)N2C[C@H](O)C[C@H]2C(=O)N[C@@H](Cc2c[nH]c3ccccc23)C(=O)N[C@@H](CCN)C(=O)N[C@@H](Cc2cn(CC(=O)O)c3ccccc23)C(=O)N1C [Example 3055] ({CH2CO}-Y[NMeA]NP[Dap](X60)L[Hyp]W[Dab][Trp(1-CH2COOH)][NMeNle][NMeNle]LCG-NH2; thioether N-14) | 2.8 nM | 
6 | CCCC[C@H]1C(=O)N(C)[C@@H](CCCC)C(=O)N[C@@H](CC(C)C)C(=O)N[C@H](C(=O)NCC(N)=O)CSCC(=O)N[C@@H](Cc2ccc(O)cc2)C(=O)N(C)[C@@H](C)C(=O)N[C@@H](CC(N)=O)C(=O)N2CCC[C@H]2C(=O)N[C@@H](CNC(=S)Nc2cc(C(F)(F)F)cc(C(F)(F)F)c2)C(=O)N[C@@H](CC(C)C)C(=O)N2C[C@H](O)C[C@H]2C(=O)N[C@@H](Cc2c[nH]c3ccccc23)C(=O)N[C@@H](CCN)C(=O)N[C@@H](Cc2cn(CC(=O)O)c3ccccc23)C(=O)N1C [Example 1136] ({CH2CO}-Y[NMeA]NP[Dap](X73)L[Hyp]W[Dab][Trp(1-CH2COOH)][NMeNle][NMeNle]LCG-NH2; thioether N-14) | 14 nM | 
7 | CCCC[C@H]1C(=O)N(C)[C@@H](CCCC)C(=O)N[C@@H](CC(C)C)C(=O)N[C@H](C(=O)NCC(N)=O)CSCC(=O)N[C@@H](Cc2ccc(O)cc2)C(=O)N(C)[C@@H](C)C(=O)N[C@@H](CC(N)=O)C(=O)N2CCC[C@H]2C(=O)N[C@@H](CNC(=O)Nc2ccccc2-c2ccccc2)C(=O)N[C@@H](CC(C)C)C(=O)N2C[C@H](O)C[C@H]2C(=O)N[C@@H](Cc2c[nH]c3ccccc23)C(=O)N[C@@H](CCNC(=O)Nc2ccccc2-c2ccccc2)C(=O)N[C@@H](Cc2cn(CC(=O)O)c3ccccc23)C(=O)N1C [Example 1014] ({CH2CO}-Y[NMeA]NP[Dap]([CO-X2])L[Hyp]W[Dab]([CO-X2])[Trp(1-CH2COOH)][NMeNle][NMeNle]LCG-NH2; thioether N-14) |  | IC50 (read-out: HTRF IC50, PD-L1-His 10 nM pre-incubated with inhibitor, PD-1-Ig 20 nM): 0.7 nM
